What was measured:
[1] = molecular target: T1, Oxysterol-binding protein 2 (Homo sapiens, UniProt Q969R2); assay: Sterol-Binding Assay; conditions: pH 7.4; 20 °C
T1 sequence (Q969R2 whole entry): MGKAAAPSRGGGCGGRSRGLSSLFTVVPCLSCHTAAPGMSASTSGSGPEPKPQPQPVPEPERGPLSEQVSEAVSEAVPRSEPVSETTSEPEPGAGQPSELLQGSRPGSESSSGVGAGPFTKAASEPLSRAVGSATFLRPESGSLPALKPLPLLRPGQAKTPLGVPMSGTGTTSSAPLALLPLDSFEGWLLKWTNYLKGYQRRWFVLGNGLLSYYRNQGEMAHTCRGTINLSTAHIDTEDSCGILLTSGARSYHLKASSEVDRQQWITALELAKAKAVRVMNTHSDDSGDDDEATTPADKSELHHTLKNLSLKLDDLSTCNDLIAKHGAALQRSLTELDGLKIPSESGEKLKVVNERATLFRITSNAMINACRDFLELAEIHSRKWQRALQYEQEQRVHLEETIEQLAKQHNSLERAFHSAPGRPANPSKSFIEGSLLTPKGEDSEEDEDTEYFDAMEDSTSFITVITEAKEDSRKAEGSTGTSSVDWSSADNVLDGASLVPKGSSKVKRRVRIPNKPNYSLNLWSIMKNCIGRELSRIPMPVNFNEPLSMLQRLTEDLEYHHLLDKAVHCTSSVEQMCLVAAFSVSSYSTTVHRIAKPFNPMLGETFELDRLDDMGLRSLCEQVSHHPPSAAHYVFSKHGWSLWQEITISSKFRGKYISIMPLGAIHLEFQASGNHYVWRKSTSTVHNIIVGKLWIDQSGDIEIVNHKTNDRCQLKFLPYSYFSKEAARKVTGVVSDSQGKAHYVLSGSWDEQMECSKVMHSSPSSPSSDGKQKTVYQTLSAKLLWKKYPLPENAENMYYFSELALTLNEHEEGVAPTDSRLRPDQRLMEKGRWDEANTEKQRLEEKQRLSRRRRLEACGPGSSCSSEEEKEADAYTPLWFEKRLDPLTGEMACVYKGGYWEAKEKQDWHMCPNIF
Experimental: (§1) Recombinant OSBP, ORP4L, or ORP4S (8 pmol) was incubated in 75 μl of binding buffer (10 mM HEPES (pH 7.4), 150 mM KCl, 2% (w/v) polyvinyl alcohol) containing radioactive sterols (with or without a 40-fold excess of unlabeled sterol). After 2 h at 20 °C, a 25-μl slurry of Talon resin (1:1, v/v) was added and mixed for 10 min. Talon resin and bound protein were washed three times with 300 μl of 10 mM HEPES (pH 7.4) and 150 mM KCl and sedimented by brief centrifugation. Bound proteins were eluted from the resin with 150 mM imidazole (pH 7.4), the resin was sedimented by centrifugation, and radioactivity bound to protein in the supernatant was measured by liquid scintillation counting.

[2] = molecular target: T2, Oxysterol-binding protein 2 [1-181,275-916] (Homo sapiens, UniProt Q969R2); assay: Sterol-Binding Assay; conditions: pH 7.4; 20 °C
T2 construct: 1-181,275-916
T2 sequence (Q969R2 whole entry): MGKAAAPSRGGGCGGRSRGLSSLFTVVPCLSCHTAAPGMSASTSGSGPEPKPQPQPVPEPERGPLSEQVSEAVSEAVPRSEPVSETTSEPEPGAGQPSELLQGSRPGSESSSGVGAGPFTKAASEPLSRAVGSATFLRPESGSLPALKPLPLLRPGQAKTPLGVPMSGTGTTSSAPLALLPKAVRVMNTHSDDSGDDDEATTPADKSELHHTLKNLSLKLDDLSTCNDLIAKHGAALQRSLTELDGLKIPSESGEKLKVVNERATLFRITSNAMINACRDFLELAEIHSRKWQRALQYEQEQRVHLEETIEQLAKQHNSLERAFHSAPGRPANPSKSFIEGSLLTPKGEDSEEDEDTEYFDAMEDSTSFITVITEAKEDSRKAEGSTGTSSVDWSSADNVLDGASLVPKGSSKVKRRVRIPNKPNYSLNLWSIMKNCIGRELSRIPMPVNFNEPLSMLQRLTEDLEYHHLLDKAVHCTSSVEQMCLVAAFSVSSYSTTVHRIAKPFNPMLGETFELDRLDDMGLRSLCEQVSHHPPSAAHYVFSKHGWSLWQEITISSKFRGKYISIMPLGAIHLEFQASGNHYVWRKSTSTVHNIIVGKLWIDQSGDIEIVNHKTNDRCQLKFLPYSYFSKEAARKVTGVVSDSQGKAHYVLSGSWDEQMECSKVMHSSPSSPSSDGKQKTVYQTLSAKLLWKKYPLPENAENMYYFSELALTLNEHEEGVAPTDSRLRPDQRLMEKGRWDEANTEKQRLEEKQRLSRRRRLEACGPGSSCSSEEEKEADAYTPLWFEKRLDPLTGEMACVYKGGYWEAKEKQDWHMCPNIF
Experimental: as §1

## CC(C)CCC[C@@H](C)[C@H]1CC[C@H]2[C@@H]3CC=C4C[C@@H](O)CC[C@]4(C)[C@H]3CC[C@]12C [(1S,2R,5S,10S,11S,14R,15R)-2,15-dimethyl-14-[(2R)-6-methylheptan-2-yl]tetracyclo[8.7.0.0^{2,7}.0^{11,15}]heptadec-7-en-5-ol]
[1]
  Kd: 68 nM
[2]
  Kd: 60 nM

## C[C@H](CCCC(C)(C)O)[C@H]1CC[C@H]2[C@@H]3CC=C4C[C@@H](O)CC[C@]4(C)[C@H]3CC[C@]12C [(1S,2R,5S,10S,11S,14R,15R)-14-[(2R)-6-hydroxy-6-methylheptan-2-yl]-2,15-dimethyltetracyclo[8.7.0.0^{2,7}.0^{11,15}]heptadec-7-en-5-ol]
[1]
  Kd: 17 nM
[2]
  Kd: 23 nM

From BindingDB's records for doi:10.1074/jbc.M114.571216 (Dalhousie University, 2014)
